According to doi:10.1101/2025.07.20.665728 (bioRxiv, 2025):
Where “and” joins values, the source holds several entries; their conditions need not be identical. Equal entries are not always repeated. Where two headings read alike, the source gives them in different places.

Assays:
[1] = biological target: T1, hMR1 protein (Homo sapiens, UniProt Q95460); assay: Fluorescence polarization (FP)-based cell-free MR1 binding assay (competition with JYM20)
T1 construct: plasmids encoding for the extracellular domains of MR1, β2m, and the AF-7 TCRα and TCRβ chains; made in house

[2] = tested on: soluble WT MR1; assay: Fluorescence-based thermal shift assay of MR1-ligand complexes; assay type: binding, human; settings: MR1 refolded with the ligand, Sypro Orange, three independent experiments
[3] = biological target: T2, human MR1-β2-microglobulin (β2m) complex (Homo sapiens, UniProt Q95460); assay: In vitro refolding of MR1-β2m co-complex with ligand; assay type: binding; settings: ligand added to refolding buffer
T2 construct: plasmids encoding for the extracellular domains of MR1, β2m, and the AF-7 TCRα and TCRβ chains; made in house
From the text: We then assessed the capacity of RF and its catabolites to be loaded within recombinant MR1. The human MR1-β2-microglobulin (β2m) complex can only co-purify when the MR1 Ag-binding pocket is occupied with ligand ([Kjer-Nielsen et al., 2012]). […] Next, we examined how these catabolites could stabilize MR1 using an in vitro MR1-Ag complexes through thermostability assay ([Eckle et al., 2014]) (Fig. 1H). Here, the half-maximum melting temperatures (Tm50) of the stable complexes MR1-5-OP-RU and MR1-Ac-6-FP were 58.65 ± 0.42 and 62.12 ± 0.37 °C; respectively, consistent with previous values ([Eckle et al., 2014]). […] Thus, the binding of these ligands stabilizes the MR1 protein but to a lower extent in comparison to MR1-5-OP-RU and MR1-Ac-6-FP (Fig. 1H).
Escherichia coli BL21(DE3) cells were transformed with plasmids encoding for the extracellular domains of MR1, β2m, and the AF-7 TCRα and TCRβ chains ([Kjer-Nielsen et al., 2012]; [Patel et al., 2013]; [Wang et al., 2022a]). The proteins were then expressed, and the inclusion bodies were purified, cleaned, and used for refolding. For both MR1 and AF-7 TCR, inclusion bodies were refolded through rapid dilution overnight as previously mentioned ([Keller et al., 2017]). To refold MR1 with ligands, 58 mg MR1 inclusion bodies along with 30 mg of β2m inclusion bodies were placed in a 500 ml of refold buffer consisting of 0.1 M Tris pH 8.0, 5 M of urea, 2 mM EDTA, 2.5 mM oxidized glutathione, 20 mM reduced glutathione and 0.4 M of L-arginine for 16 h at 4° C. Ligands were dissolved in dilute NaOH and added directly into the refolding buffer. […] The refolded MR1-ligand complex was dialyzed against 10 mM Tris pH 8.0 overnight and purified using size-exclusion (Superdex 200, GE Healthcare) and anion-exchange (HiTrapQ, GE Healthcare) chromatography techniques ([Awad et al., 2020a]).

[4] = tested on: C1R.MR1^K43A cells; assay: Cell surface MR1 K43A quantification, C1R.MR1^K43A; assay type: cell-based
From the text: We then tested the effect of the RF catabolites on the expression of two mutant versions of MR1 termed MR1^R9H ([Howson et al., 2020]) and MR1^K43A ([Reantragoon et al., 2013]). First, we tested the MR1^R9H mutant ([Howson et al., 2020]) which represents a rare, natural human polymorph. […] When C1R. […] Next, we tested sought to understand how the previously characterised Lys43A mutation affects ligand binding. […] While this is in line with the ability of these ligands to bind MR1, the reason for MR1^K43A cell surface accumulation is less clear. The most likely explanation is that these ligands bind ER-resident MR1^K43A, in line with our data using wild-type MR1; however, because the K43A mutation results in spontaneous MR1 surface egress, the presence of these stabilising ligands promotes enhanced trafficking and/or retention at the cell surface. We cannot rule out however that the ligands may also bind directly to surface MR1^K43A and slow down the recycling from cell surface.
The level of MR1 expressed on the cell surface was measured after the exposure to the investigated ligands as previously described ([Awad et al., 2020a]; [Wang et al., 2022a]). C1R antigen presenting B lymphocytes overexpressing MR1*01 (C1R.MR1), MR1^K43A mutant (C1R.MR1^K43A), MR1^R9H mutant (C1R.MR1^R9H) or HLA-A*02:01 (C1R-A2), in addition to the monocytic THP-1-MR1 cells, were used in this study. 2 x 10^5 cells were incubated with RF catabolites for 3 or 16 h at 37° C and 5% CO2 in 200 μl folate-free RPMI 1640 medium from Gibco (Cat. No. 11875-093) fortified with 10% fetal bovine serum (FBS), sodium pyruvate (1 mmol/L), Hepes buffer (15 mmol/L), pH 7.2 to 7.5, 2% penicillin (100 U/ml), streptomycin ([…]), glutamax (2 mmol/L), nonessential amino acids (0.1 mmol/L) (all from ThermoFisher, Life Technologies), and 2-mercaptoethanol ([…], Sigma) (RF-10). After incubation, the cells were first stained with Zombie Aqua Fixable Viability Kit from BioLegend (Cat. No. 423102) and then incubated with biotinylated 8F2F9 αMR1 antibody for 30 minutes on ice. The unbound antibody was then washed off with 2% fetal bovine serum/PBS. The cells were finally incubated with PE-conjugated streptavidin (BioLegend, 30 μg/ml) and then washed with 2% fetal bovine serum/PBS. The PE fluorescence intensity reflects the surface MR1 level. The data was acquired with an LSRFortessa X-20 (BD Biosciences) and Diva software (BD Biosciences) and analyzed using FlowJo software (BD Biosciences).
Figure S2. Responses of different APCs to RF catabolites. […] C1R cells expressing (b) wild-type level of MR1*01, or overexpressing (c) HLA-A*02:01 or (d) MR1.K43A mutant were incubated for the indicated periods with titrated quantities of ligand followed by flow cytometry. The C1R and C1R.A2 cells were stained with biotinylated 8F2F9 and W6/32, respectively; followed by PE-labelled streptavidin. In all experiments, the MR1 and HLA-A*02:01 surface expression are depicted as a fold change from basal surface expression upon incubation with the vehicle (1 mM NaOH). Each column represents the average of at least three independent experiments performed in duplicate with standard error (SEM) represented by error bars. One-way ANOVA statistical analysis was performed for all samples followed by Dunnett multiple comparison test using NaOH as a control (ns; not significant, * p <0.05, **p < 0.01, ***p < 0.001, ****p < 0.0001).

[5] = tested on: C1R.MR1 cells; assay: Competition with Ac-6-FP/5-OP-RU-induced MR1 upregulation, C1R.MR1; assay type: cell-based; settings: for reduction of Ac-6-FP response: 200 μM (highest concentration), overnight, cell line not given
[6] = competition with 10 nM JYM20 for 100 nM empty hMR1, 37°C, read-out: IC50

IC50 [1, 6] | folding of the MR1-β2m co-complex in solution [3] | SMILES | Tm50 (half maximum melting temperature), Mean ± SD ([2]; listed as MR1-alloxazine) | MR1^K43A at the cell surface ([4]; 3 h) | reduction of Ac-6-FP response ([5]; then 10 μM Ac-6-FP 3 h) | Tm50 (half maximum melting temperature), Mean ± SD ([2]; listed as MR1-lumichrome) | MR1^K43A at the cell surface ([4]; 16 h) | IC50 ([1]; IC50, competition with 10 nM JYM20 for 100 nM empty hMR1, 37°C) | Tm50 (half maximum melting temperature), Mean ± SD ([2]; listed as MR1-lumiflavin) | effect on Ac-6-FP-induced cell surface upregulation of MR1 ([5]; C1R.MR1, 1–200 μM overnight, then 10 μM Ac-6-FP 3 h) | effect on 5-OP-RU-induced cell surface upregulation of MR1 ([5]; C1R.MR1, 1–200 μM overnight, then 5-OP-RU 3 h)
13.4 µM | facilitated the correct folding | O=c1nc2[nH]c3ccccc3nc-2c(=O)[nH]1 [Alloxazine, alloxazine] | 49.9–52.0 °C | increased | more than 80% | – | – | – | – | – | –
12.5 µM | facilitated the correct folding | Cc1cc2nc3[nH]c(=O)[nH]c(=O)c3nc2cc1C [Lumichrome, 7,8-dimethylalloxazine] | – | increased | more than 80% | 49.9–52.0 °C | MR1 upregulation continues | – | – | – | –
~182 µM and 182 µM | did not sponsor refolding | Cc1cc2nc3c(=O)[nH]c(=O)nc-3n(C[C@H](O)[C@H](O)[C@H](O)CO)c2cc1C [RF, Riboflavin] | – | – | – | – | MR1 upregulation continues | – | – | did not modulate | did not modulate

SMILES | IC50 [1, 6] | folding of the MR1-β2m co-complex in solution [3] | Tm50 (half maximum melting temperature), Mean ± SD ([2]; listed as MR1-alloxazine) | MR1^K43A at the cell surface ([4]; 3 h) | reduction of Ac-6-FP response ([5]; then 10 μM Ac-6-FP 3 h) | Tm50 (half maximum melting temperature), Mean ± SD ([2]; listed as MR1-lumichrome) | MR1^K43A at the cell surface ([4]; 16 h) | IC50 ([1]; IC50, competition with 10 nM JYM20 for 100 nM empty hMR1, 37°C) | Tm50 (half maximum melting temperature), Mean ± SD ([2]; listed as MR1-lumiflavin) | effect on Ac-6-FP-induced cell surface upregulation of MR1 ([5]; C1R.MR1, 1–200 μM overnight, then 10 μM Ac-6-FP 3 h) | effect on 5-OP-RU-induced cell surface upregulation of MR1 ([5]; C1R.MR1, 1–200 μM overnight, then 5-OP-RU 3 h)
Cc1cc2nc3c(=O)[nH]c(=O)nc-3n(C)c2cc1C [Lumiflavin] | – | facilitated the correct folding | – | increased | more than 80% | – | – | 22.8 µM | 49.9–52.0 °C | – | –
